Data published in ChEMBL document CHEMBL4428125, “8-Substituted 1,3-dimethyltetrahydropyrazino[2,1-f]purinediones: Water-soluble adenosine receptor antagonists and monoamine oxidase B inhibitors” (Bioorg Med Chem, 2016).
In brackets after ≈: the same amount, converted by molar mass.

How the values were obtained:
Adenosine receptor A1 = biological target: T1, Adenosine receptor A1 (Rattus norvegicus, UniProt P25099); assay: Displacement of [3H]CCPA from A1 receptor in rat brain cortex membranes by liquid scintillation counting method; type: cell membranes
T1 sequence (P25099 whole entry): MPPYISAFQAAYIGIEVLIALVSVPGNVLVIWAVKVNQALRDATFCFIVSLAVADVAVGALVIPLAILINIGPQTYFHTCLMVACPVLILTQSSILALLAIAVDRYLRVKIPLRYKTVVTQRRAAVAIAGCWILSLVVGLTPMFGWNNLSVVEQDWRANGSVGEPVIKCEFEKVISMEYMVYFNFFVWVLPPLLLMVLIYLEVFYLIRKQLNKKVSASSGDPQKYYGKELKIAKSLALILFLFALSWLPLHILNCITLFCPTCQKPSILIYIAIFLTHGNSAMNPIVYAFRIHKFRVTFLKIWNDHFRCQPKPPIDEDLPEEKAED

[1] = biological target: T2, Adenosine receptor A1 (Rattus norvegicus) (UniProt P25099); assay: Displacement of [3H]CCPA from A1 receptor in rat brain cortex membranes at 1.5 uM by liquid scintillation counting method; type: cell membranes
T2 sequence (whole entry): T1 sequence (P25099 whole entry)

Adenosine receptor A2a = Adenosine receptor A2a (Rattus norvegicus, UniProt P30543); assay: Displacement of [3H]MSX from A2A receptor in rat brain striatum membranes measured after 30 mins by liquid scintillation counting method; type: cell membranes
Chain of Adenosine receptor A2a (P30543 whole entry): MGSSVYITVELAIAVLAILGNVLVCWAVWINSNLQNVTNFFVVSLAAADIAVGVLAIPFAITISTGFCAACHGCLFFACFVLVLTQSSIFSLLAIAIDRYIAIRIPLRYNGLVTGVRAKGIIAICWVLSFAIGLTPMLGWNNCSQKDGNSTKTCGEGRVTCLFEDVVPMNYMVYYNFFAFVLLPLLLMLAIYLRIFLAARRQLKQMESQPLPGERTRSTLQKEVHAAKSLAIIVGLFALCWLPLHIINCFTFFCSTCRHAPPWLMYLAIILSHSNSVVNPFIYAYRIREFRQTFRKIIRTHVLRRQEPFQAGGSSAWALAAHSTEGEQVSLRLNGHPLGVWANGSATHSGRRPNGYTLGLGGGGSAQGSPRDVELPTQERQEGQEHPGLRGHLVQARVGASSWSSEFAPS

[2] = biological target: T3, Amine oxidase [flavin-containing] B (Homo sapiens, UniProt P27338); assay: Inhibition of recombinant human MAO-B expressed in baculovirus infected BTI insect cells preincubated for 30 mins followed by addition of p-tyramine as substrate measured over 45 mins by Amplex Red MAO assay
T3 sequence (P27338 whole entry): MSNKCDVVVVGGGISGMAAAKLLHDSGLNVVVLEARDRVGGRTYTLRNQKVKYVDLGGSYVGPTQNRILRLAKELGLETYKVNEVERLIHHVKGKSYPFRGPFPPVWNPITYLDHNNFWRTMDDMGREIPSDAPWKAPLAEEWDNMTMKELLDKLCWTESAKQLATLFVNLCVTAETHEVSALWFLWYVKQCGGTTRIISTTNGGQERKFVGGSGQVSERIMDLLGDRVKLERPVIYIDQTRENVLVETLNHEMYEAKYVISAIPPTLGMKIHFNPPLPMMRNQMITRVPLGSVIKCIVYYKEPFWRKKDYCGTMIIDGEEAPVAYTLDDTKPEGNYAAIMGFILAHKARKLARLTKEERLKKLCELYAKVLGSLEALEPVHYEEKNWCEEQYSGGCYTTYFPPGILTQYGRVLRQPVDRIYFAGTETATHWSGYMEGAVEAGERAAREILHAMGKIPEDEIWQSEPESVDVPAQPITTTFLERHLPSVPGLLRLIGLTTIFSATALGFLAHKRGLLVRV

[3] = biological target: T3, Amine oxidase [flavin-containing] B; assay: Inhibition of recombinant human MAO-B expressed in baculovirus infected BTI insect cells at 10 uM preincubated for 30 mins followed by addition of p-tyramine as substrate measured over 45 mins by Amplex Red MAO assay relative to control; details: 0.75 h
Adenosine receptor A2b = biological target: T4, Adenosine receptor A2b (Homo sapiens, UniProt P29275); assay: Displacement of [3H]PSB-603 from human A2B receptor expressed in CHO cell membrane; type: cell membranes
T4 sequence (P29275 whole entry): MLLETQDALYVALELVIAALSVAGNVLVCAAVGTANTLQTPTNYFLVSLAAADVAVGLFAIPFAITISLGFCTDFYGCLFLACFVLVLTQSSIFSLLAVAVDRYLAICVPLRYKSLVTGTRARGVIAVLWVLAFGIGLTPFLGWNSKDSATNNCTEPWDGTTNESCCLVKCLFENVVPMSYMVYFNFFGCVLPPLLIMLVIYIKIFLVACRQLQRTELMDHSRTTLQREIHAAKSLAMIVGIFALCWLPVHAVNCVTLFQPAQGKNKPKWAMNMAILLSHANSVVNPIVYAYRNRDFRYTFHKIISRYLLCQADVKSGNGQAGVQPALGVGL

[4] = biological target: T5, Adenosine receptor A2b (Homo sapiens) (UniProt P29275); assay: Displacement of [3H]PSB-603 from human A2B receptor expressed in CHO cell membrane at 1 uM relative to control; type: cell membranes
T5 sequence (whole entry): T4 sequence (P29275 whole entry)

Adenosine receptor A3 = biological target: T6, Adenosine receptor A3 (Homo sapiens, UniProt P0DMS8); assay: Displacement of [3H]PSB-11 from human A3 receptor expressed in CHO cell membrane by liquid scintillation counting method relative to control; type: cell membranes
T6 sequence (P0DMS8 whole entry): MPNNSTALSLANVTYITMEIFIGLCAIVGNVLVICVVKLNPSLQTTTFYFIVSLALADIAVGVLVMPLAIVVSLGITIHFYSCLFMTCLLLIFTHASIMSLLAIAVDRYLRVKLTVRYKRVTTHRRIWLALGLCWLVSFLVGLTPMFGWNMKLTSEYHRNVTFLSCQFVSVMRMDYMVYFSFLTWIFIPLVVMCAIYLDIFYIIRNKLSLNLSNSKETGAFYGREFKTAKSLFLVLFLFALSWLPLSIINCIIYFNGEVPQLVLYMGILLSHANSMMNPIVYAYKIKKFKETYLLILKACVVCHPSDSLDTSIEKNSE

[5] = biological target: T7, Adenosine receptor A3 (Homo sapiens) (UniProt P0DMS8); assay: Displacement of [3H]PSB-11 from human A3 receptor expressed in CHO cell membrane at 10 uM by liquid scintillation counting method relative to control relative to control; type: cell membranes
T7 sequence (whole entry): T6 sequence (P0DMS8 whole entry)

[6] = Thermodynamic solubility of the compound at pH 7.4; type: physicochemical; details: buffer, read-out: Therm_solubility
[7] = biological target: Adenosine receptor A2a (Rattus norvegicus) (UniProt P30543); assay: Displacement of [3H]MSX from A2A receptor in rat brain striatum membranes at 1 uM measured after 30 mins by liquid scintillation counting method relative to control; type: cell membranes
Chain of Adenosine receptor A2a (Rattus norvegicus) (P30543 whole entry): as the sequence (P30543 whole entry) above

[8] = Thermodynamic solubility of the compound at pH 1; type: physicochemical; details: buffer, read-out: Therm_solubility
[9] = Thermodynamic solubility of the compound at pH 4; type: physicochemical; details: buffer, read-out: Therm_solubility
[10] = biological target: T8, Amine oxidase [flavin-containing] A (Homo sapiens, UniProt P21397); assay: Inhibition of recombinant human MAO-A expressed in baculovirus infected BTI insect cells preincubated for 30 mins followed by addition of p-tyramine as substrate measured over 45 mins by Amplex Red MAO assay
T8 sequence (P21397 whole entry): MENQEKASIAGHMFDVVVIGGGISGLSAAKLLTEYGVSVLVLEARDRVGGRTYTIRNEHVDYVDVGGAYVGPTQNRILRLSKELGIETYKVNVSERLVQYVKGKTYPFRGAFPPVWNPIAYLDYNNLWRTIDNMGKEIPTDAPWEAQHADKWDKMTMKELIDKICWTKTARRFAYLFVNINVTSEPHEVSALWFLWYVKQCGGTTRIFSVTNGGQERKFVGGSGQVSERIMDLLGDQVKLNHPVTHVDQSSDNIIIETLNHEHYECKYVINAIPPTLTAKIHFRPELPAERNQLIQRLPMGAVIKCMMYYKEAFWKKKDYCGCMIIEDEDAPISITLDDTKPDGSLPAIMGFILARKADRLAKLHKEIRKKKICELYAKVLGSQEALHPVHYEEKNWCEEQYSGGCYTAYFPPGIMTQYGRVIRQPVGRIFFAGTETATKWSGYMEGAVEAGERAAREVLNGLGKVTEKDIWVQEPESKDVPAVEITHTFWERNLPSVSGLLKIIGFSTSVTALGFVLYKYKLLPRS

[11] = biological target: T8, Amine oxidase [flavin-containing] A; assay: Inhibition of recombinant human MAO-A expressed in baculovirus infected BTI insect cells at 10 uM preincubated for 30 mins followed by addition of p-tyramine as substrate measured over 45 mins by Amplex Red MAO assay relative to control; details: 0.75 h

Row | Structure (SMILES) | Ki (Adenosine receptor A1) | Activity [1] | Ki (Adenosine receptor A2a) | IC50 [2] | inhibition at 10 µM [3] | Ki (Adenosine receptor A2b) | Activity [4] | Ki (Adenosine receptor A3) | Activity [5] | solubility thermodynamic [6] | Activity [7] | solubility thermodynamic [8] | solubility thermodynamic [9] | IC50 [10] | inhibition at 10 µM [11]
1 | Cn1c(=O)c2c(nc3n2CCN(CCc2ccc(Cl)cc2)C3)n(C)c1=O | > 1.5 µM | 22% | 4.96 µM | > 10 µM | 36% | > 1 µM | 4% | > 10 µM | 37% | 1 µg/mL (≈ 2.67 µM) |  |  |  |  | 
2 | Cn1c(=O)c2c(nc3n2CCN(CCOc2ccccc2F)C3)n(C)c1=O | > 1.5 µM | 5% | > 1 µM | > 10 µM | 24% | > 1 µM | 12% | > 10 µM | 41% | < 0.5 µg/mL | 23% | > 1500 µg/mL | < 0.5 µg/mL |  | 
3 | Cn1c(=O)c2c(nc3n2CCN(C2CCN(Cc4ccccc4)CC2)C3)n(C)c1=O | > 1.5 µM | 7% | > 1 µM | > 10 µM | 2% | > 1 µM | 17% | > 10 µM | 10% | 300 µg/mL (≈ 734 µM) | 5% | > 1500 µg/mL | > 1500 µg/mL |  | 
4 | Cc1cc(CN2CCn3c(nc4c3c(=O)n(C)c(=O)n4C)C2)n(C)n1 | > 1.5 µM | 15% | > 1 µM | > 10 µM | -17% | > 1 µM | 8% | > 10 µM | 5% | 700 µg/mL (≈ 2040 µM) | 14% |  |  |  | 
5 | Cn1c(=O)c2c(nc3n2CCN(CCc2ccccc2Br)C3)n(C)c1=O | > 1.5 µM | 10% | > 1 µM | 0.97 µM |  | > 1 µM | 24% | > 10 µM | 35% | < 0.5 µg/mL | 27% | > 1500 µg/mL | < 0.5 µg/mL |  | 
6 | Cn1c(=O)c2c(nc3n2CCN(CC(O)c2ccccc2)C3)n(C)c1=O (configuration not stated) | > 1.5 µM | 7% | 7.11 µM | > 10 µM | 3% | > 1 µM | 20% | > 10 µM | 11% | 90 µg/mL (≈ 253 µM) |  | 1100 µg/mL (≈ 3100 µM) | 70 µg/mL (≈ 197 µM) |  | 
7 | Cn1c(=O)c2c(nc3n2CCN(CC#Cc2cccc(Cl)c2)C3)n(C)c1=O | > 1.5 µM | 17% | > 1 µM | > 10 µM | 5% | > 1 µM | 7% | > 10 µM | 20% |  | 42% |  |  | > 10 µM | 19%
8 | Cn1c(=O)c2c(nc3n2CCN(CCc2ccc(O)cc2)C3)n(C)c1=O | > 1.5 µM | 11% | 6.04 µM | > 10 µM | 15% | > 1 µM | 8% | > 10 µM | 35% | 1 µg/mL (≈ 2.81 µM) |  |  |  |  | 
9 | Cc1sc(-c2ccc(C(F)(F)F)cc2)nc1CN1CCn2c(nc3c2c(=O)n(C)c(=O)n3C)C1 | > 1.5 µM | 25% | > 1 µM | 10 µM | 67% | > 1 µM | 30% | > 10 µM | 40% | 1 µg/mL (≈ 2.04 µM) | 19% |  |  |  | 
10 | Cn1c(=O)c2c(nc3n2CCN(CCOc2cccc(F)c2)C3)n(C)c1=O | > 1.5 µM | 8% | > 1 µM | > 10 µM | 22% | > 1 µM | 11% | > 10 µM | 42% | < 0.5 µg/mL | 31% | > 1500 µg/mL | < 0.5 µg/mL |  | 
